Test results: PubChem BioAssay (NCI)
Several values for one entry are separate records, joined by “and”; a condition that tells them apart may be missing. Equal values may be shown once.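 Growth conditions: 96-well plates. Treatment: test compound, 48 hours, 5 concentrations. Analysis: linear interpolation between bracketing concentrations; unreached endpoints set to highest concentration. Here, GI50 denotes the concentration required for 50% inhibition of growth. TGI marks complete inhibition of growth.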

Experiments:
Assay in all cases: inhibition of tumour cell growth, NCI panel, 48 h
[1] = test system: NCI-H460 lung
[2] = test system: ACHN renal
[3] = test system: SNB-75 CNS
[4] = test system: HT29 colon
[5] = test system: SK-MEL-28 melanoma
[6] = test system: SK-MEL-2 melanoma
[7] = test system: CCRF-CEM leukemia
[8] = test system: LOX IMVI melanoma
[9] = test system: M14 melanoma
[10] = test system: MCF7 breast

Compound	TGI [1] [µM]	TGI [2]	TGI [3]	TGI [4]	TGI [5]	TGI [6]	TGI [7] [µM]	TGI [8]	TGI [9]	GI50 [1] [µM]	GI50 [10] [µM]	TGI [10] [µM]	GI50 [2] [µM]	GI50 [3] [µM]	GI50 [4] [µM]	GI50 [5] [µM]	GI50 [8] [µM]	GI50 [9] [µM]	GI50 [6] [µM]	GI50 [7] [µM]
COc1cc2c[n+](C)c3c4cc(OC)c(OC(C)C)cc4ccc3c2cc1OC	> 100	> 100 µM	> 100 µM	> 100 µM	> 100 µM	40 µM	> 100	> 100 µM	> 100 µM											
O=C1CCCCC1S(=O)(=O)c1ccccc1 (stereo not given)	> 100	> 100 µM	> 100 µM	> 100 µM	> 100 µM	> 100 µM	> 100	> 100 µM	> 100 µM											
O=S(=O)(/C=C/c1ccc(F)cc1)Cc1ccc(CS(=O)(=O)/C=C/c2ccc(F)cc2)cc1	> 100	> 100 µM	> 100 µM	> 100 µM	> 100 µM	> 100 µM	> 100	> 100 µM	> 100 µM											
NNC(=O)C1CCC(=O)N1S(=O)(=O)c1ccccc1 (stereo not given)	> 100	> 100 µM	> 100 µM	> 100 µM	> 100 µM	> 100 µM	> 100	> 100 µM	> 100 µM											
CCCCCCCCCCCCCCCC(=O)OCC1OC(n2cc(F)c(=O)[nH]c2=O)C(N)C(O)C1O (stereo not given)		33.9 µM	38.6 µM	42.1 µM	31.1 µM		31.7	33.1 µM	32.8 µM											
Cc1nc(Nc2ccccc2)sc1C(=O)CC(=O)C(=O)Nc1c(C(C)C)cccc1C(C)C	> 100	> 100 µM		> 100 µM	> 100 µM	> 100 µM	> 100	> 100 µM	> 100 µM											
O=C(c1ccc(Cl)cc1Cl)C1[C@H]2C(=O)N(c3ccc(Cc4ccc(N5C(=O)[C@@H]6ON(c7ccccc7)C(C(=O)c7ccc(Cl)cc7Cl)[C@@H]6C5=O)cc4)cc3)C(=O)[C@H]2ON1c1ccccc1 (stereo not given in full)	> 50	> 50 µM	> 50 µM	> 50 µM	> 50 µM	> 50 µM	> 50	> 50 µM	> 50 µM											
Cc1ccc2c(c1)-c1c3c(nn1-c1ccccc1)-c1ccccc1SC3O2 (stereo not given)	> 100	> 100 µM	> 100 µM	> 100 µM	> 100 µM	> 100 µM	> 100	> 100 µM												
CCOC(=O)/C(C1=NCCN1)=C(\O)c1ccccc1	> 100	> 100 µM		> 100 µM	> 100 µM	> 100 µM	> 100	> 100 µM	> 100 µM											
COc1cc2ccnc3c2c(c1OC)-c1coc(SC)c1-3	> 100	> 100 µM	79.3 µM	> 100 µM		> 100 µM		> 100 µM	> 100 µM											
c1cncc(C2N3CCCCC3[C@@H]3c4[nH]c5ccccc5c4CCN23)c1 (stereo not given in full)	> 100	> 100 µM	> 100 µM	> 100 µM	> 100 µM	> 100 µM	> 100		> 100 µM											
Nc1ncnc2c1N=C(c1ccc3c(c1)OCO3)CC(c1ccc([N+](=O)[O-])cc1)N2 (stereo not given)	> 100	> 100 µM	> 100 µM	> 100 µM	> 100 µM			> 100 µM	> 100 µM	76.3	31.5	> 100	29.1	39.4	63	> 100	22.9	> 100		
COc1ccc(CCN2CC=Cn3c2nc2ccccc2c3=O)cc1	14.4	> 49.2 µM		27.4 µM	> 100 µM	32.9 µM	> 100	> 40.1 µM		0.0358	0.0307	> 43	0.0919		0.0319	0.694	0.0585		0.0334	0.03
NC(=O)CN(CC(N)=O)C(N)=O	> 100	> 100 µM	> 100 µM	> 100 µM	> 100 µM	> 100 µM	> 100	> 100 µM	> 100 µM											
CC(=O)[CH-]C(=O)c1ccccc1.CC(=O)[CH-]C(=O)c1ccccc1.CC[O-].CC[O-].[Hf+4]	> 100	> 100 µM	> 100 µM	> 100 µM	> 100 µM	> 100 µM	> 100	> 100 µM	> 100 µM	> 100			> 100	> 100	> 100	> 100	> 100	> 100	> 100	69.1
CC1=NN(C(=O)c2ccccc2O)C(=O)/C1=C/c1ccc(O)cc1	> 100	> 100 µM	> 100 µM	> 100 µM	> 100 µM		> 100	> 82.1 µM	22.4 µM			> 100								
COc1cc(OC)c(C/C=C/c2ccccc2)cc1O	31	72.3 µM	33.9 µM	31.5 µM	30.4 µM	41.8 µM	51.6	29.4 µM	38 µM											
CCCCCCC[CH2][Sn]([CH2]CCCCCCC)([O]c1cccc2cccnc12)[O]c1cccc2cccnc12	10.7	11.1 µM	9.53 µM	3.94 µM		3.14 µM	3.25	3.64 µM	3.17 µM	3.12			2.98	2.74	2.04		1.77	1.33	1.61	0.506
C[C@@]12CCC(=O)c3coc(c31)C(=O)c1cc3c(cc12)C(=O)C=CC3=O	> 70.9	> 1 µM and 30.3 µM	> 1 µM and 43.9 µM	> 1 µM and 39.7 µM	> 1 µM and 29.9 µM	> 1 µM and 45.1 µM	> 23.2	> 1 µM and 20.9 µM	> 1 µM and 27.6 µM	> 1			> 1	> 1	> 1	> 1	> 1	> 1	> 1	
CCOc1cc2c(C(=O)CC)c(O)ccc2o1	> 100	> 100 µM	> 100 µM	> 100 µM	> 58.4 µM	> 100 µM	> 85.1	> 100 µM	> 100 µM											
